# Measured values reported in US20080009418A1, “Selective Inhibitors” (Alchemia LTD., priority 2004, published 2008).
# Tests used:
# Human neurokinin (NK1) = target: T1, Human neurokinin (NK1) (Homo sapiens, UniProt P25103); test: Radioligand binding, human neurokinin NK1 membranes, filtration, [125I]-Substance P; details: compound at 10 μM, [125I]-Substance P
# T1 construct: purchased Perkin Elmer Biosignal
# Procedure, shortened: (§1)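 Percent inhibition of radioligand binding measured on recombinant human membranes: NK1 with [125I]-Substance P, KOP with [3H]-Diprenorphine. Incubation 1 h at room temperature, then harvest onto 0.3% PEI-soaked filters, cold Tris-HCl pH 7.4 washes and scintillation counting; non-specific binding from reference ligand wells.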
# Human δ-opioid (DOP) = target: T2, Human δ-opioid (DOP) (Homo sapiens, UniProt P41143); test: Radioligand binding, human δ-opioid (DOP) membranes, FlashPlate, [3H]-Bremazocine; details: compound at 10 μM, [3H]-Bremazocine
# T2 construct: purchased Perkin Elmer Biosignal
# T2 sequence (P41143 whole entry): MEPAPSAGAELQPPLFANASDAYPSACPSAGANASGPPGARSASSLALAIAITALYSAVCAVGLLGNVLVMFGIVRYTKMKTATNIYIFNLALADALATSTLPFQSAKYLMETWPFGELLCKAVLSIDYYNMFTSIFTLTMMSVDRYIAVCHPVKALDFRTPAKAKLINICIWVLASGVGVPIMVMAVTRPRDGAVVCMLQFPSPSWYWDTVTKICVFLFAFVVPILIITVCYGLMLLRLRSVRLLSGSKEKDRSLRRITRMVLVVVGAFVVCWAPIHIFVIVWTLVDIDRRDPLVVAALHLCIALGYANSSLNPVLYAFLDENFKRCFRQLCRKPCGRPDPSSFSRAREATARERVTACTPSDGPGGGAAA
# Procedure, shortened: (§2)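 Cloned human receptor membranes were coated onto FlashPlate wells and incubated with radioligand and compound (added from a 0.5 mM DMSO daughter plate) for 1 hour at room temperature in the dark. Scintillation counting gave percent inhibition, with DMSO defining total and reference ligand defining non-specific binding.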
# Human Melanocortin (MC3) = target: T3, Human Melanocortin (MC3) (Homo sapiens, UniProt P41968); test: Radioligand binding, human melanocortin MC3 membranes, FlashPlate, [125I]-NDP-αMSH; details: compound at 10 μM, [125I]-NDP-αMSH
# T3 construct: purchased Perkin Elmer Biosignal
# T3 sequence (P41968 whole entry): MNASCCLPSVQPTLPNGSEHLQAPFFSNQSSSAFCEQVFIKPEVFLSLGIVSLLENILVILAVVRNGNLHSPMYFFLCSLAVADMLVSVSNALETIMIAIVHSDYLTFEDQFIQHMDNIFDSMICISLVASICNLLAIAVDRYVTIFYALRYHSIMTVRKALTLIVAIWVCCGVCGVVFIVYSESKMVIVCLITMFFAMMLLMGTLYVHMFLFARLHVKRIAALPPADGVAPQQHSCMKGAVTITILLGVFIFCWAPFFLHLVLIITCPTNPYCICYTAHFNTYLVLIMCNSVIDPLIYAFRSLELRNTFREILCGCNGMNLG
# Procedure, shortened: as §2
# Human κ-Opioid (KOP) = target: T4, Human κ-Opioid (KOP) (Homo sapiens, UniProt P41145); test: Radioligand binding, human κ-opioid (KOP) membranes, filtration, [3H]-Diprenorphine; details: compound at 10 μM, [3H]-Diprenorphine
# T4 construct: purchased Perkin Elmer Biosignal
# T4 sequence (P41145 whole entry): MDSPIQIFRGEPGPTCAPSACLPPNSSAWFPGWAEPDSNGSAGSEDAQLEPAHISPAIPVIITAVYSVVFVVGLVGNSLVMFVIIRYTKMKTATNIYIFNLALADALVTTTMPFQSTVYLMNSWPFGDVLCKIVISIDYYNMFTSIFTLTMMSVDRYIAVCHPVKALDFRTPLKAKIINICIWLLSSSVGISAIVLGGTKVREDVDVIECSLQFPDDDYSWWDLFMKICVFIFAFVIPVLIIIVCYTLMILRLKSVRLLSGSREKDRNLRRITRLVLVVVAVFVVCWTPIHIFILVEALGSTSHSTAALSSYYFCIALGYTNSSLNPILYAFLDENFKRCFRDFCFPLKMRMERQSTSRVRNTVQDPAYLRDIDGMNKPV
# Procedure, shortened: as §1
# Mouse urotensin (mUR2) = target: T5, Mouse urotensin (mUR2) (Mus musculus, UniProt Q8VIH9); test: Radioligand binding, mouse urotensin mUR2 membranes, FlashPlate, [125I]-Urotensin II; details: compound at 10 μM, [125I]-Urotensin II
# T5 construct: purchased Perkin Elmer Biosignal
# T5 sequence (Q8VIH9 1-385): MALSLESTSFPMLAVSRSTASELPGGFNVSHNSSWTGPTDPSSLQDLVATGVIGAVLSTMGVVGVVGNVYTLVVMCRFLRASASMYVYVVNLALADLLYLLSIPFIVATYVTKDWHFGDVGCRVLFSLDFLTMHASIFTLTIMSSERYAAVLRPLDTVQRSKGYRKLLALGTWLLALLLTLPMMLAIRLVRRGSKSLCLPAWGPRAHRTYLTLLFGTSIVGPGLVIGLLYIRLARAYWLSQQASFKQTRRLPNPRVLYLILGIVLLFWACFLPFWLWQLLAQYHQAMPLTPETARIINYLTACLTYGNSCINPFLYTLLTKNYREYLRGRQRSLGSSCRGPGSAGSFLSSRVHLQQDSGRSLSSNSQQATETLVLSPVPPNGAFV
# Procedure, shortened: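 Cloned mouse urotensin (mUR2) receptor membranes from Perkin Elmer Biosignal were immobilized in FlashPlate microplates using a proprietary coating. Each well got 19.5 μl buffer, then 0.5 μl of DMSO, reference ligand, or compound. Adding 5 μl of [125I]-Urotensin II, diluted to 5× final concentration in binding buffer, started binding. Plates were sealed with TopSeal-A and incubated 1 hour at room temperature in the dark. Wells were counted for 30 seconds each on a TopCount after a 60-second delay, and percentage inhibition was calculated.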
# [1] = target: T6, Human neuropeptide Y (NPY-Y1) (Homo sapiens, UniProt P25929); test: Radioligand binding, human neuropeptide Y NPY-Y1 membranes, FlashPlate, [125I]-PYY; details: compound at 10 μM, [125I]-PYY
# T6 construct: purchased Perkin Elmer Biosignal
# T6 sequence (P25929 1-384): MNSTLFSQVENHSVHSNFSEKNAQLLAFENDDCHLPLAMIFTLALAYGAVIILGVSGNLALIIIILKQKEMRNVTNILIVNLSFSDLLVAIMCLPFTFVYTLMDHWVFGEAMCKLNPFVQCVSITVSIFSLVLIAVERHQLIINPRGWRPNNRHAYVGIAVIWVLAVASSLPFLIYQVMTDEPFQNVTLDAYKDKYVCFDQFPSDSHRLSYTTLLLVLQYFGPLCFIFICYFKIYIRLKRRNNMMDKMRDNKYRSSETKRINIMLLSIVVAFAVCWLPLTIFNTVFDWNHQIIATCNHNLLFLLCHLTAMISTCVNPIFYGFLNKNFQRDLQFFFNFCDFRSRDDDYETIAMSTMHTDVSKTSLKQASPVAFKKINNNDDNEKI
# Procedure, shortened: as §2
# Human melanocortin (MC5) = target: T7, Human melanocortin (MC5) (Homo sapiens, UniProt P33032); test: Radioligand binding, human melanocortin MC5 membranes, FlashPlate, [125I]-NDP-αMSH; details: compound at 10 μM, [125I]-NDP-αMSH
# T7 construct: purchased Perkin Elmer Biosignal
# T7 sequence (P33032 whole entry): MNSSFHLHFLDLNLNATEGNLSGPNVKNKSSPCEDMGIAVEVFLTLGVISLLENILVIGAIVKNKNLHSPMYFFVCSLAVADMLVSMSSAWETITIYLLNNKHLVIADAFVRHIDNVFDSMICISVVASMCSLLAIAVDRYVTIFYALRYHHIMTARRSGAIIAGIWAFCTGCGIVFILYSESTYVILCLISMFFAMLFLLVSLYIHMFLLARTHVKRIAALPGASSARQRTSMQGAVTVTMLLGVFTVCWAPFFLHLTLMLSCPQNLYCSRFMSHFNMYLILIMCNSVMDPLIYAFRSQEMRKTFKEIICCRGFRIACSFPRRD
# Procedure, shortened: as §2
# Human Melanocortin (MC4) = target: T8, Human Melanocortin (MC4) (Homo sapiens, UniProt P32245); test: Radioligand binding, human melanocortin MC4 membranes, FlashPlate, [125I]-NDP-αMSH; details: compound at 10 μM, [125I]-NDP-αMSH
# T8 construct: purchased Perkin Elmer Biosignal
# T8 sequence (P32245 whole entry): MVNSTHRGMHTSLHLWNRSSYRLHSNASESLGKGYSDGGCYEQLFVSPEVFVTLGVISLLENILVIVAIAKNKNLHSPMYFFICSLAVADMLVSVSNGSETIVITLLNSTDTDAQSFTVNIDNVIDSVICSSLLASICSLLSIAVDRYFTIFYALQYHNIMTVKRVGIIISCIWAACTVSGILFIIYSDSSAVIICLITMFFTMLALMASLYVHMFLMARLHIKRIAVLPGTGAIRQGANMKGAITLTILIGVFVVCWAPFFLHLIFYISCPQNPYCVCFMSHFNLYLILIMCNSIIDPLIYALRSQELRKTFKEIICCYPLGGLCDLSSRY
# Procedure, shortened: as §2
# Human opioid (ORL1) = target: T9, Human opioid (ORL1) (Homo sapiens, UniProt P41146); test: Radioligand binding, human opioid ORL1 membranes, FlashPlate, [125I]-Nociceptin; details: compound at 10 μM, [125I]-Nociceptin
# T9 construct: purchased Perkin Elmer Biosignal
# T9 sequence (P41146 whole entry): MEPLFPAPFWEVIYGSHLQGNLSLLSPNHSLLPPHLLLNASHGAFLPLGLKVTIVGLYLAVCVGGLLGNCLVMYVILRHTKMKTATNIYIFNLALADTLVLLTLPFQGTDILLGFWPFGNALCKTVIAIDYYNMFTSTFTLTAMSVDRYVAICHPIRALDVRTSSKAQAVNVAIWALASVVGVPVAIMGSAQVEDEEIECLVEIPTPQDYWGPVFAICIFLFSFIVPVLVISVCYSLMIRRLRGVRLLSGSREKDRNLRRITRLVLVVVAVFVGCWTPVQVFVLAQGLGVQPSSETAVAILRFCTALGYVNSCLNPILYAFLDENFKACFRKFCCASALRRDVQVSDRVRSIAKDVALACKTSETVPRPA
# Procedure, shortened: as §2
# Human μ-opioid (MOP) = target: T10, Human μ-opioid (MOP) (Homo sapiens, UniProt P35372); test: Radioligand binding, human μ-opioid (MOP) membranes, FlashPlate, [3H]-Naloxone; details: compound at 10 μM, [3H]-Naloxone
# T10 construct: purchased Perkin Elmer Biosignal
# T10 sequence (P35372 whole entry): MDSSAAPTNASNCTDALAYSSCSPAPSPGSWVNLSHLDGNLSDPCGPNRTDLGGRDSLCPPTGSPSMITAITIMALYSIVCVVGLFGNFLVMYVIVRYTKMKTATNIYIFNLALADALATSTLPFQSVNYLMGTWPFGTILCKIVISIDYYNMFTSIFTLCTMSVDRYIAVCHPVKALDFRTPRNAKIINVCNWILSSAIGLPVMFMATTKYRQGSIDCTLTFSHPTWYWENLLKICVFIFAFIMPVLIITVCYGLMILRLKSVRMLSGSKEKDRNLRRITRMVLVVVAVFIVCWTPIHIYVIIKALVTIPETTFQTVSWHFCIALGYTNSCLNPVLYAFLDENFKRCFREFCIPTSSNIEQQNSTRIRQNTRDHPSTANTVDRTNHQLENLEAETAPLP
# Procedure, shortened: as §2
# [2] = target: T11, Human melanin-concentrating hormone (MCH1) (Homo sapiens, UniProt Q99705); test: Radioligand binding, human melanin-concentrating hormone MCH1 membranes, FlashPlate, [125I]-S36057; details: compound at 10 μM; for A6: inhibition of radioligand binding, human melanin-concentrating hormone (MCH1) / A6 radioligand binding, percentage inhibition: [125I]-S36057
# T11 construct: purchased Perkin Elmer Biosignal
# T11 sequence (Q99705 whole entry): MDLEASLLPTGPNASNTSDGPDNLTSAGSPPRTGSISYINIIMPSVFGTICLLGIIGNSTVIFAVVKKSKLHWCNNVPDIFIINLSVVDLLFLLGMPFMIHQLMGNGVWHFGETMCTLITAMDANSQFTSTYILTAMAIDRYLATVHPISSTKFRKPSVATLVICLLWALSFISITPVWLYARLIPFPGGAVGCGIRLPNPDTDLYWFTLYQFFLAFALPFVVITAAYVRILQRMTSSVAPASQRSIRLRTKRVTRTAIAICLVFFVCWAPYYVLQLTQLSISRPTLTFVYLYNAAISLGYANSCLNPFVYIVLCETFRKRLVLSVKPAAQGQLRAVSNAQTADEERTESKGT
# Procedure, shortened: as §2
# T1 sequence (P25103 whole entry): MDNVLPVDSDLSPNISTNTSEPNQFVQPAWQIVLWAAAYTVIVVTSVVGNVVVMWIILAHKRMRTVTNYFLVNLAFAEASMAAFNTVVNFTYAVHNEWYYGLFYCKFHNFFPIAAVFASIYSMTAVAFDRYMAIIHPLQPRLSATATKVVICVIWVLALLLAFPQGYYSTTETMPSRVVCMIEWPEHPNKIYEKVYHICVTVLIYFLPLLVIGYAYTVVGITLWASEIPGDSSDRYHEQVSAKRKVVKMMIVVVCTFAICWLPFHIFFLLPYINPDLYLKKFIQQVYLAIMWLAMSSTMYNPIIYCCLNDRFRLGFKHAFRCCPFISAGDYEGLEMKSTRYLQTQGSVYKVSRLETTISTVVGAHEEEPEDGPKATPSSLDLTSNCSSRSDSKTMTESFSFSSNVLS
Structure (SMILES),"A8: inhibition of radioligand binding, human neurokinin (NK1) (Human neurokinin (NK1))","A1: inhibition of radioligand binding, human δ-opioid (DOP) (Human δ-opioid (DOP))","A3: inhibition of radioligand binding, human melanocortin (MC3) (Human Melanocortin (MC3))","A2: inhibition of radioligand binding, human κ-opioid (KOP) (Human κ-Opioid (KOP))","A11: inhibition of radioligand binding, mouse urotensin (mUR2) (Mouse urotensin (mUR2))","A9: inhibition of radioligand binding, human neuropeptide Y (NPY-Y1) [1]","A5: inhibition of radioligand binding, human melanocortin (MC5) (Human melanocortin (MC5))","A4: inhibition of radioligand binding, human melanocortin (MC4) (Human Melanocortin (MC4))","A10: inhibition of radioligand binding, human opioid (ORL1) (Human opioid (ORL1))","A7: inhibition of radioligand binding, human μ-opioid (MOP) (Human μ-opioid (MOP))","A6: inhibition of radioligand binding, human melanin-concentrating hormone (MCH1) [2]","A8 radioligand binding, percentage inhibition (Human neurokinin (NK1))","A1 radioligand binding, percentage inhibition (Human δ-opioid (DOP))","A3 radioligand binding, percentage inhibition (Human Melanocortin (MC3))","A2 radioligand binding, percentage inhibition (Human κ-Opioid (KOP))","A11 radioligand binding, percentage inhibition (Mouse urotensin (mUR2))","A9 radioligand binding, percentage inhibition [1]","A5 radioligand binding, percentage inhibition (Human melanocortin (MC5))","A4 radioligand binding, percentage inhibition (Human Melanocortin (MC4))","A10 radioligand binding, percentage inhibition (Human opioid (ORL1))",further results
COCC1OC(OCc2ccc3ccccc3c2)C(NC(=O)CCNC(=N)N)C(OCc2ccc(-c3ccccc3)cc2)C1O (stereo not drawn) [compound 244],,,,,,,,,,,,,,,,,,,,,"A8: inhibition of radioligand binding (Human neurokinin (NK1); filtration): + (“+” indicates greater than 50% inhibition at 10 μM); A1: inhibition of radioligand binding (Human δ-opioid (DOP); FlashPlate): − (“−” indicates less than 50% inhibition at 10 μM); A3: inhibition of radioligand binding (Human Melanocortin (MC3); FlashPlate): + (“+” indicates greater than 50% inhibition at 10 μM); A2: inhibition of radioligand binding (Human κ-Opioid (KOP); filtration): − (“−” indicates less than 50% inhibition at 10 μM); A11: inhibition of radioligand binding (Mouse urotensin (mUR2); FlashPlate): − (“−” indicates less than 50% inhibition at 10 μM); A9: inhibition of radioligand binding ([1]; FlashPlate): + (“+” indicates greater than 50% inhibition at 10 μM); A5: inhibition of radioligand binding (Human melanocortin (MC5); FlashPlate): + (“+” indicates greater than 50% inhibition at 10 μM); A4: inhibition of radioligand binding (Human Melanocortin (MC4); FlashPlate): + (“+” indicates greater than 50% inhibition at 10 μM); A10: inhibition of radioligand binding (Human opioid (ORL1); FlashPlate): − (“−” indicates less than 50% inhibition at 10 μM); A7: inhibition of radioligand binding (Human μ-opioid (MOP); FlashPlate): − (“−” indicates less than 50% inhibition at 10 μM); A6: inhibition of radioligand binding ([2]; [125I]-S36057, FlashPlate): + (“+” indicates greater than 50% inhibition at 10 μM)"
CSC1OC(COCc2cccc(N)c2)C(O)C(OCc2ccccc2)C1NC(=O)c1c[nH]c2ccccc12 (stereo not drawn) [compound 331],+ (“+” indicates greater than 50% inhibition at 10 μM),− (“−” indicates less than 50% inhibition at 10 μM),− (“−” indicates less than 50% inhibition at 10 μM),− (“−” indicates less than 50% inhibition at 10 μM),− (“−” indicates less than 50% inhibition at 10 μM),− (“−” indicates less than 50% inhibition at 10 μM),− (“−” indicates less than 50% inhibition at 10 μM),− (“−” indicates less than 50% inhibition at 10 μM),− (“−” indicates less than 50% inhibition at 10 μM),− (“−” indicates less than 50% inhibition at 10 μM),− (“−” indicates less than 50% inhibition at 10 μM),,,,,,,,,,
COC[C@H]1OC(OCCNC(=N)N)[C@H](NC(=O)c2ccccc2)[C@@H](OCc2ccc3ccccc3c2)[C@@H]1O (stereo partly drawn) [compound 123],,,,,,,,,,,,+ (“+” indicates greater than 50% inhibition at 10 μM),− (“−” indicates less than 50% inhibition at 10 μM),− (“−” indicates less than 50% inhibition at 10 μM),− (“−” indicates less than 50% inhibition at 10 μM),− (“−” indicates less than 50% inhibition at 10 μM),− (“−” indicates less than 50% inhibition at 10 μM),+ (“+” indicates greater than 50% inhibition at 10 μM),− (“−” indicates less than 50% inhibition at 10 μM),− (“−” indicates less than 50% inhibition at 10 μM),"A7 radioligand binding, percentage inhibition (Human μ-opioid (MOP)): − (“−” indicates less than 50% inhibition at 10 μM); A6 radioligand binding, percentage inhibition [2]: − (“−” indicates less than 50% inhibition at 10 μM)"
COC[C@H]1OC(OCc2cccc(O)c2)[C@H](NC(=O)CCCNC(=N)N)[C@@H](OCc2ccc(-c3ccccc3)cc2)[C@@H]1O (stereo partly drawn) [compound 144],,,,,,,,,,,,+ (“+” indicates greater than 50% inhibition at 10 μM),− (“−” indicates less than 50% inhibition at 10 μM),− (“−” indicates less than 50% inhibition at 10 μM),− (“−” indicates less than 50% inhibition at 10 μM),− (“−” indicates less than 50% inhibition at 10 μM),− (“−” indicates less than 50% inhibition at 10 μM),+ (“+” indicates greater than 50% inhibition at 10 μM),− (“−” indicates less than 50% inhibition at 10 μM),− (“−” indicates less than 50% inhibition at 10 μM),"A7 radioligand binding, percentage inhibition (Human μ-opioid (MOP)): + (“+” indicates greater than 50% inhibition at 10 μM); A6 radioligand binding, percentage inhibition [2]: + (“+” indicates greater than 50% inhibition at 10 μM)"
N=C(N)NCCC(=O)N[C@H]1C(OCc2ccc(Cl)cc2)O[C@H](COCc2ccccc2)[C@@H](O)[C@@H]1OCc1ccc2ccccc2c1 (stereo partly drawn) [compound 531],+ (“+” indicates greater than 50% inhibition at 10 μM),− (“−” indicates less than 50% inhibition at 10 μM),+ (“+” indicates greater than 50% inhibition at 10 μM),+ (“+” indicates greater than 50% inhibition at 10 μM),− (“−” indicates less than 50% inhibition at 10 μM),− (“−” indicates less than 50% inhibition at 10 μM),+ (“+” indicates greater than 50% inhibition at 10 μM),+ (“+” indicates greater than 50% inhibition at 10 μM),+ (“+” indicates greater than 50% inhibition at 10 μM),+ (“+” indicates greater than 50% inhibition at 10 μM),+ (“+” indicates greater than 50% inhibition at 10 μM),,,,,,,,,,
"NCCC(=O)NC1C(OCc2ccc(Cl)cc2)OC(COCc2ccc(Cl)cc2)C(O)C1OCc1ccc2ccccc2c1 (single isomer, unassigned) [compound 482]",+ (“+” indicates greater than 50% inhibition at 10 μM),− (“−” indicates less than 50% inhibition at 10 μM),+ (“+” indicates greater than 50% inhibition at 10 μM),,− (“−” indicates less than 50% inhibition at 10 μM),− (“−” indicates less than 50% inhibition at 10 μM),+ (“+” indicates greater than 50% inhibition at 10 μM),+ (“+” indicates greater than 50% inhibition at 10 μM),+ (“+” indicates greater than 50% inhibition at 10 μM),− (“−” indicates less than 50% inhibition at 10 μM),+ (“+” indicates greater than 50% inhibition at 10 μM),,,,,,,,,,"A2: inhibition of radioligand binding, human κ-opioid (KOP) (Human κ-Opioid (KOP); 10 µM): − (“−” indicates less than 50% inhibition at 10 μM)"
